These results are taken from ChEMBL document CHEMBL5537193, “Multitargeting HDAC Inhibitors Containing a RAS/RAF Protein Interfering Unit” (J Med Chem, 2024).

One assay relates to A549. In words: cells. Conditions: Homo sapiens, A549, 72 h.
In another assay the test system is NCI-H1975. Description: cells. Conditions: Homo sapiens, NCI-H1975, 72 h.
In the next assay the test system is A-431. In words: cells. Conditions: Homo sapiens, A-431, 72 h.
A further assay concerns SGC-7901. Description: cells. Conditions: Homo sapiens, SGC-7901, 72 h.
The subject of a further assay is HepG2. In words: cells. Conditions: Homo sapiens, HepG2, 72 h.
The next assay has as its system MCF7. Description: cells. Conditions: Homo sapiens, MCF7, 72 h.
A further assay concerns L02. In words: cells. Conditions: Homo sapiens, L02, 72 h.
The target of assay [1] is Serine/threonine-protein kinase PLK1 (Homo sapiens, UniProt P53350). In words: Inhibition of PLK1 (unknown origin).
Sequence of Serine/threonine-protein kinase PLK1 (P53350 whole entry): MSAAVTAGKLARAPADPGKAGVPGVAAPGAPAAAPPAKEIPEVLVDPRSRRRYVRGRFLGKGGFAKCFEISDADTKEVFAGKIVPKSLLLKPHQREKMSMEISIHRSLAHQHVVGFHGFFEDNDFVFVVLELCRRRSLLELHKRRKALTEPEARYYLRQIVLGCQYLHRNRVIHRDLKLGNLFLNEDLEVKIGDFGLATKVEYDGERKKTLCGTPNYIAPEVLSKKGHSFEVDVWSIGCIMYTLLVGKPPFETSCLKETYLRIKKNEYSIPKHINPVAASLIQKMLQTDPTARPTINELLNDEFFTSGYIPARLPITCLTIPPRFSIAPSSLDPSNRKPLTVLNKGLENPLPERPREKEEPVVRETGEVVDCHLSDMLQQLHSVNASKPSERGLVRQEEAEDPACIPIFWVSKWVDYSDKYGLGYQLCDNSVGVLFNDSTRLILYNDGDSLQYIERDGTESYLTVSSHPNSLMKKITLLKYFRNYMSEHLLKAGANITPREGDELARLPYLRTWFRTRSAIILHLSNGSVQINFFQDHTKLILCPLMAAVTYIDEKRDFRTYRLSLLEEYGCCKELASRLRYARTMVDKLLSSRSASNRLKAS
The subject of assay [2] is PANC-1. In words: Cell cycle arrest in human PANC-1 cells assessed as accumulation of cells at GO-G1 phase at 2 uM incubated for 24 hrs by PI/RNase staining based flow cytometric analysis. It counts as functional.
Assay [3] deals with PANC-1. Description: Induction of apoptosis in human PANC-1 cells assessed as apoptotic cells at 2 uM incubated for 24 hrs by flow cytometric analysis relative to control. The assay is classed as functional. (In general: In flow cytometry, cells or beads pass a laser one at a time.)
The test system of the next assay is HT-29. Description: Induction of apoptosis in human HT-29 cells assessed as apoptotic ratio at 2 uM incubated for 24 hrs by flow cytometric analysis. The assay is classed as functional.
In assay [4] the test system is PANC-1. In words: Induction of apoptosis in human PANC-1 cells assessed as increase in Bax expression at 2 uM incubated for 24 hrs by Western blot analysis. The assay is classed as functional, cell-based. On the technique in general: In western blotting, separated proteins are transferred to a membrane and probed.
Assay [5] deals with PANC-1. Description: Induction of apoptosis in human PANC-1 cells assessed as increase in Cytochrome C expression level at 2 uM incubated for 24 hrs by Western blot analysis. The assay is classed as functional, cell-based.
Assay [6] concerns PANC-1. Description: Induction of apoptosis in human PANC-1 cells assessed as increase in cleaved caspase-9 expression level at 2 uM incubated for 24 hrs by Western blot analysis. It counts as functional, cell-based.
Assay [7] concerns PANC-1. In words: Induction of apoptosis in human PANC-1 cells assessed as increase in cleaved caspase-3 expression level at 2 uM incubated for 24 hrs by Western blot analysis. The assay is classed as functional, cell-based.
Assay [8] concerns PANC-1. Description: Induction of apoptosis in human PANC-1 cells assessed as increase in cleaved PARP expression level at 2 uM incubated for 24 hrs by Western blot analysis. It counts as functional, cell-based.

Structures are written as SMILES. Active and inactive are the calls of the source. No cut-off for these calls is given here.

Description for A-431: Cytotoxicity against human A-431 cells assessed as inhibition of cell growth incubated for 72 hrs by MTT assay
Description for A549: Cytotoxicity against human A549 cells assessed as inhibition of cell growth incubated for 72 hrs by MTT assay
Description for HepG2: Cytotoxicity against human HepG2 cells assessed as inhibition of cell growth incubated for 72 hrs by MTT assay
Description for L02: Cytotoxicity against human L02 cells assessed as inhibition of cell growth incubated for 72 hrs by MTT assay
Description for MCF7: Cytotoxicity against human MCF7 cells assessed as inhibition of cell growth incubated for 72 hrs by MTT assay
Description for NCI-H1975: Cytotoxicity against human NCI-H1975 cells assessed as inhibition of cell growth incubated for 72 hrs by MTT assay
Description for SGC-7901: Cytotoxicity against human SGC-7901 cells assessed as inhibition of cell growth incubated for 72 hrs by MTT assay

On to `COc1cc(OC)c(/C=C/S(=O)(=O)Cc2ccc(OC)c(NC(=O)CCCC(=O)Nc3ccccc3N)c2)c(OC)c1`, for which the IC50 stood at 35.5 µM in the assay on A549; 8.45 µM with NCI-H1975; 4.11 µM with A-431; 31.9 µM in the assay on SGC-7901; 18.6 µM with HepG2; 17.7 µM with MCF7. Further, in the assay on L02, the IC50 is over 40 µM.
For the compound `COc1cc(OC)c(/C=C/S(=O)(=O)Cc2ccc(OC)c(NC(=O)CCCCC(=O)NO)c2)c(OC)c1`, the IC50 in the assay on A549 worked out at 8.56 µM; in the assay with NCI-H1975, 9.48 µM; in the assay on A-431 it was 18.8 µM; with SGC-7901, 12.3 µM; in the assay on HepG2, 29.1 µM; with MCF7 it was 9.68 µM. This compound gave an IC50 with L02 of over 40 µM.
For `COc1cc(OC)c(/C=C/S(=O)(=O)Cc2ccc(OC)c(NC(=O)CCCC(=O)NO)c2)c(OC)c1`, the IC50 in the assay on A549 was 1.74 µM; with NCI-H1975 it was 0.67 µM; in the assay on A-431, 11.4 µM; in the assay on SGC-7901 it was 1.87 µM; in the assay with HepG2, 5.89 µM; in the assay with MCF7, 3.78 µM. Also, in the assay with L02, the IC50 is over 40 µM.
For the compound `COc1cc(OC)c(/C=C/S(=O)(=O)Cc2ccc(OC)c(NCCC(=O)NO)c2)c(OC)c1`, the IC50 stood at 9.35 µM in the assay with A549; 3.95 µM with NCI-H1975; 2.03 µM in the assay on A-431; 5.46 µM in the assay with SGC-7901; 15 µM in the assay with HepG2; 5.45 µM with MCF7. In the assay on L02, this compound returned an IC50 of over 40 µM.
With `COc1cc(OC)c(/C=C/S(=O)(=O)Cc2ccc(OC)c(NCCCCCC(=O)NO)c2)c(OC)c1`, the IC50 stood at 6.02 µM in the assay on A549; 5.08 µM in the assay on NCI-H1975; 4.64 µM in the assay on A-431; 4.92 µM in the assay with SGC-7901; 4.64 µM with HepG2; 7.56 µM in the assay on MCF7. Further, in the assay on L02, the IC50 was over 40 µM.
`COc1cc(OC)c(/C=C/S(=O)(=O)Cc2ccc(OC)c(NCC(=O)Nc3ccccc3N)c2)c(OC)c1`: the IC50 was determined as 3.67 µM in the assay with A549; 2.18 µM in the assay on NCI-H1975; 4.14 µM in the assay on A-431; 4.98 µM with SGC-7901; 4.75 µM with HepG2; 4.94 µM in the assay with MCF7. The compound further displayed an IC50 in the assay on L02 of over 40 µM.
With `O=C(CCCCCCC(=O)Nc1ccccc1)NO` [VORINOSTAT], the results for the IC50 (in [1]; with SGC-7901) were 1.6 µM and 2.89 µM, respectively. The outcome in the assay on PANC-1 [2], with PANC-1 [4], with PANC-1 [5], in the assay with PANC-1 [6], in the assay on PANC-1 [7] and in the assay with PANC-1 [8] was Active. Also, the Activity was determined as 20.5% with PANC-1 [3] and 21.4% in the assay with HT-29.
Take `COc1cc(OC)c(/C=C/S(=O)(=O)Cc2ccc(OC)c(NC(=O)CCCCC(=O)Nc3ccccc3N)c2)c(OC)c1`: the IC50 in the assay with A549 came out at 16.7 µM; in the assay with NCI-H1975, 18.8 µM; in the assay with A-431 it was 20.6 µM; in the assay with SGC-7901 it was 17.2 µM; in the assay with HepG2, 27.4 µM; in the assay on MCF7, 11.7 µM. Moreover, the IC50 in the assay on L02 is over 40 µM.
As to `COc1cc(OC)c(/C=C/S(=O)(=O)Cc2ccc(OC)c(NCCC(=O)Nc3ccccc3N)c2)c(OC)c1`, the IC50 is 11.3 µM in the assay on A549; 5.11 µM in the assay on NCI-H1975; 8.69 µM with A-431; 13.2 µM in the assay with SGC-7901; 7.3 µM in the assay with HepG2; 12.6 µM in the assay on MCF7. Also, the IC50 in the assay with L02 is over 40 µM.
Consider `COc1cc(OC)c(/C=C/S(=O)(=O)Cc2ccc(OC)c(NC(=O)CCC(=O)Nc3ccccc3N)c2)c(OC)c1`, for which the IC50 stood at 7.41 µM with A549; 2.58 µM in the assay on NCI-H1975; 1.26 µM in the assay with A-431; 6.6 µM with SGC-7901; 12.3 µM with HepG2; 13.2 µM with MCF7. For the same compound, in the assay on L02, the half-maximal inhibitory concentration (IC50) is over 40 µM.
With `COc1cc(OC)c(/C=C/S(=O)(=O)Cc2ccc(OC)c(NCCCCCC(=O)Nc3ccccc3N)c2)c(OC)c1`, the IC50 with A549 turned out to be 12.8 µM; in the assay with NCI-H1975, 4.75 µM; with A-431, 4.47 µM; with SGC-7901, 8.89 µM; with HepG2, 7.54 µM; in the assay with MCF7 it was 10.5 µM. Besides, the IC50 with L02 was over 40 µM.

The term IC50 denotes the midpoint of a concentration-inhibition curve. Higher therefore signals weaker potency.
